Here are results for four compounds from patent US6352958B1, “Cycloimido-substituted benzofused heterocyclic herbicides” (FMC Corporation, priority 1997, dated 2002).

What all share (type): in vivo
Experiment [1] concerns green foxtail (Setaria viridis). The experiment can be described thus: Preemergence herbicidal activity, green foxtail. The note with it: Rate of Application 0.3 Kg/Ha, examined after 12-17 days.
The subject of experiment [2] is soybean (Glycine max var. Winchester). Briefly: Preemergence herbicidal activity, soybean. The note with it: Rate of Application 0.3 Kg/Ha, examined after 12-17 days.
For experiment [3], the system named is wheat (Triticum aestivum var. Lew). Briefly: Postemergence herbicidal activity, wheat. The note with it: rate of application 0.3 Kg/Ha, rated after 12-17 days.
For experiment [4] the test system is unchanged. Briefly: Preemergence herbicidal activity, wheat. Conditions: Rate of Application 0.3 Kg/Ha, examined after 12-17 days.
Experiment [5] concerns velvetleaf (Abutilon theophrasti). The experiment can be described thus: Postemergence herbicidal activity, velvetleaf. The note with it: rate of application 0.3 Kg/Ha, rated after 12-17 days.
Experiment [6] has as its system morningglory (Ipomea lacunosa or Ipomea hederacea). Briefly: Postemergence herbicidal activity, morningglory. The note with it: rate of application 0.3 Kg/Ha, rated after 12-17 days.
For experiment [7], the system named is common chickweed (Stellaria media). Briefly: Postemergence herbicidal activity, chickweed. Conditions: rate of application 0.3 Kg/Ha, rated after 12-17 days.
Experiment [8] deals with Johnsongrass (Sorghum halepense). The experiment can be described thus: Preemergence herbicidal activity, johnsongrass. Conditions: Rate of Application 0.3 Kg/Ha, examined after 12-17 days.
Experiment [9] has as its system common cocklebur (Xanthium strumarium L.). Briefly: Preemergence herbicidal activity, cocklebur. The note with it: Rate of Application 0.3 Kg/Ha, examined after 12-17 days.
In experiment [10] the test system is common chickweed (Stellaria media). The experiment can be described thus: Preemergence herbicidal activity, chickweed. Conditions: Rate of Application 0.3 Kg/Ha, examined after 12-17 days.
Experiment [11] relates to green foxtail (Setaria viridis). The experiment can be described thus: Postemergence herbicidal activity, green foxtail. Conditions: rate of application 0.3 Kg/Ha, rated after 12-17 days.
The subject of experiment [12] is morningglory (Ipomea lacunosa or Ipomea hederacea). The experiment can be described thus: Preemergence herbicidal activity, morningglory. The note with it: Rate of Application 0.3 Kg/Ha, examined after 12-17 days.
Experiment [13] concerns blackgrass (Aloepecurus myosuroides). Briefly: Preemergence herbicidal activity, blackgrass. The note with it: Rate of Application 0.3 Kg/Ha, examined after 12-17 days.
Experiment [14] concerns velvetleaf (Abutilon theophrasti). The experiment can be described thus: Preemergence herbicidal activity, velvetleaf. The note with it: Rate of Application 0.3 Kg/Ha, examined after 12-17 days.
The test system of experiment [15] is field corn (Zea mays var. Pioneer 3732). Briefly: Preemergence herbicidal activity, corn. Conditions: Rate of Application 0.3 Kg/Ha, examined after 12-17 days.
In experiment [16] the test system is common cocklebur (Xanthium strumarium L.). Briefly: Postemergence herbicidal activity, cocklebur. The note with it: rate of application 0.3 Kg/Ha, rated after 12-17 days.
For experiment [17], the system named is soybean (Glycine max var. Winchester). The experiment can be described thus: Postemergence herbicidal activity, soybean. The note with it: rate of application 0.3 Kg/Ha, rated after 12-17 days.
Experiment [18] has as its system field corn (Zea mays var. Pioneer 3732). The experiment can be described thus: Postemergence herbicidal activity, corn. The note with it: rate of application 0.3 Kg/Ha, rated after 12-17 days.
Experiment [19] relates to blackgrass (Aloepecurus myosuroides). Briefly: Postemergence herbicidal activity, blackgrass. Conditions: rate of application 0.3 Kg/Ha, rated after 12-17 days.
Experiment [20] has as its system Johnsongrass (Sorghum halepense). The experiment can be described thus: Postemergence herbicidal activity, johnsongrass. Conditions: rate of application 0.3 Kg/Ha, rated after 12-17 days.

With `CC(C)C(=O)OC(C)c1cc2c(Cl)cc(F)c(-n3c(=O)cc(C(F)(F)F)n(C)c3=O)c2o1` (stereo not shown) [Compound 247], in experiment [1], the “PREEMERGENCE HERBICIDAL ACTIVITY (% CONTROL) SETVI” value turned out to be 100%. Also, in experiment [2], the “PREEMERGENCE HERBICIDAL ACTIVITY (% CONTROL) SOY” value was 100%. In addition, the “Postemergence herbicidal activity (% control) WHT” value in experiment [3] came to 80%. Moreover, in experiment [4], the “PREEMERGENCE HERBICIDAL ACTIVITY (% CONTROL) WHT” value worked out at 90%. For the same compound, the “Postemergence herbicidal activity (% control) ABUTH” value in experiment [5] came out at 100%. The “Postemergence herbicidal activity (% control) IPOSS” value in experiment [6] is recorded as 100%. Moreover, the “Postemergence herbicidal activity (% control) STEME” value in [7] was determined as 100%. Further, the “PREEMERGENCE HERBICIDAL ACTIVITY (% CONTROL) SORHA” value in [8] is 100%. In addition, the “PREEMERGENCE HERBICIDAL ACTIVITY (% CONTROL) XANPE” value in [9] is on record as 100%. Moreover, the “PREEMERGENCE HERBICIDAL ACTIVITY (% CONTROL) STEME” value in [10] was found to be 95%. In addition, in [11], the “Postemergence herbicidal activity (% control) SETVI” value was found to be 100%. In addition, in experiment [12], the “PREEMERGENCE HERBICIDAL ACTIVITY (% CONTROL) IPOSS” value is given as 100%. Further, in experiment [13], the “PREEMERGENCE HERBICIDAL ACTIVITY (% CONTROL) ALOMY” value is reported as 85%. In addition, the “PREEMERGENCE HERBICIDAL ACTIVITY (% CONTROL) ABUTH” value in [14] came to 100%. For the same compound, the “PREEMERGENCE HERBICIDAL ACTIVITY (% CONTROL) CRN” value in experiment [15] was found to be 90%. In addition, in experiment [16], the “Postemergence herbicidal activity (% control) XANPE” value came to 100%. Further, the “Postemergence herbicidal activity (% control) SOY” value in experiment [17] worked out at 95%. The “Postemergence herbicidal activity (% control) CRN” value in experiment [18] is 100%. Moreover, the “Postemergence herbicidal activity (% control) ALOMY” value in experiment [19] is given as 100%.

Consider `CNC(=O)OC(C)c1cc2c(Cl)cc(F)c(-n3c(=O)cc(C(F)(F)F)n(C)c3=O)c2o1` (stereo not shown) [Compound 249], for which the “PREEMERGENCE HERBICIDAL ACTIVITY (% CONTROL) SETVI” value in experiment [1] is on record as 10%. Besides, the “PREEMERGENCE HERBICIDAL ACTIVITY (% CONTROL) SOY” value in experiment [2] came to 100%. In addition, the “Postemergence herbicidal activity (% control) WHT” value in experiment [3] was found to be 80%. The “PREEMERGENCE HERBICIDAL ACTIVITY (% CONTROL) WHT” value in experiment [4] is 80%. The “Postemergence herbicidal activity (% control) ABUTH” value in experiment [5] was 100%. For the same compound, the “Postemergence herbicidal activity (% control) IPOSS” value in experiment [6] is listed as 100%. Also, the “Postemergence herbicidal activity (% control) STEME” value in experiment [7] is 100%. In addition, the “PREEMERGENCE HERBICIDAL ACTIVITY (% CONTROL) SORHA” value in experiment [8] is given as 100%. The “PREEMERGENCE HERBICIDAL ACTIVITY (% CONTROL) XANPE” value in experiment [9] is reported as 90%. The “PREEMERGENCE HERBICIDAL ACTIVITY (% CONTROL) STEME” value in experiment [10] was 100%. In addition, in experiment [11], the “Postemergence herbicidal activity (% control) SETVI” value came to 100%. Moreover, the “PREEMERGENCE HERBICIDAL ACTIVITY (% CONTROL) IPOSS” value in experiment [12] amounted to 100%. Also, the “PREEMERGENCE HERBICIDAL ACTIVITY (% CONTROL) ALOMY” value in [13] was 80%. Besides, in [14], the “PREEMERGENCE HERBICIDAL ACTIVITY (% CONTROL) ABUTH” value worked out at 100%. In addition, the “PREEMERGENCE HERBICIDAL ACTIVITY (% CONTROL) CRN” value in experiment [15] is reported as 95%. For the same compound, the “Postemergence herbicidal activity (% control) XANPE” value in experiment [16] stood at 100%. For the same compound, in experiment [17], the “Postemergence herbicidal activity (% control) SOY” value was determined as 95%. Moreover, in [18], the “Postemergence herbicidal activity (% control) CRN” value is listed as 100%. The “Postemergence herbicidal activity (% control) ALOMY” value in experiment [19] was 100%.

As for `CC(OC(=O)NCc1ccccc1)c1cc2c(Cl)cc(F)c(-n3c(=O)cc(C(F)(F)F)n(C)c3=O)c2o1` (stereo not shown) [Compound 250], the “PREEMERGENCE HERBICIDAL ACTIVITY (% CONTROL) SETVI” value in [1] stood at 100%. In addition, in [2], the “PREEMERGENCE HERBICIDAL ACTIVITY (% CONTROL) SOY” value worked out at 80%. Further, in experiment [3], the “Postemergence herbicidal activity (% control) WHT” value was 50%. Moreover, the “PREEMERGENCE HERBICIDAL ACTIVITY (% CONTROL) WHT” value in experiment [4] amounted to 40%. Also, in experiment [5], the “Postemergence herbicidal activity (% control) ABUTH” value worked out at 100%. Further, the “Postemergence herbicidal activity (% control) IPOSS” value in experiment [6] came out at 100%. Also, the “Postemergence herbicidal activity (% control) STEME” value in experiment [7] is 80%. Further, the “Postemergence herbicidal activity (% control) SORHA” value in experiment [20] amounted to 100%. The “PREEMERGENCE HERBICIDAL ACTIVITY (% CONTROL) SORHA” value in experiment [8] stood at 70%. For the same compound, the “PREEMERGENCE HERBICIDAL ACTIVITY (% CONTROL) XANPE” value in experiment [9] came to 100%. For the same compound, the “Postemergence herbicidal activity (% control) SETVI” value in experiment [11] is on record as 100%. In experiment [12], the “PREEMERGENCE HERBICIDAL ACTIVITY (% CONTROL) IPOSS” value is recorded as 100%. In addition, in experiment [13], the “PREEMERGENCE HERBICIDAL ACTIVITY (% CONTROL) ALOMY” value came to 60%. Moreover, the “PREEMERGENCE HERBICIDAL ACTIVITY (% CONTROL) ABUTH” value in [14] was 100%. In experiment [15], the “PREEMERGENCE HERBICIDAL ACTIVITY (% CONTROL) CRN” value is 50%. The “Postemergence herbicidal activity (% control) XANPE” value in [16] was determined as 100%. In addition, the “Postemergence herbicidal activity (% control) SOY” value in experiment [17] is given as 95%. For the same compound, the “Postemergence herbicidal activity (% control) CRN” value in experiment [18] is 80%. Also, the “Postemergence herbicidal activity (% control) ALOMY” value in [19] was determined as 40%.

Consider `Cn1c(C(F)(F)F)cc(=O)n(-c2c(F)cc(Cl)c3cc(CCCC#N)oc23)c1=O` [Compound 256], for which, in experiment [1], the “PREEMERGENCE HERBICIDAL ACTIVITY (% CONTROL) SETVI” value turned out to be 100%. Further, the “PREEMERGENCE HERBICIDAL ACTIVITY (% CONTROL) SOY” value in experiment [2] stood at 100%. In [3], the “Postemergence herbicidal activity (% control) WHT” value was 80%. Moreover, the “PREEMERGENCE HERBICIDAL ACTIVITY (% CONTROL) WHT” value in experiment [4] was 80%. Also, the “Postemergence herbicidal activity (% control) ABUTH” value in [5] amounted to 100%. For the same compound, the “Postemergence herbicidal activity (% control) IPOSS” value in experiment [6] stood at 100%. For the same compound, the “Postemergence herbicidal activity (% control) STEME” value in [7] was found to be 100%. Moreover, the “Postemergence herbicidal activity (% control) SORHA” value in experiment [20] turned out to be 100%. Besides, the “PREEMERGENCE HERBICIDAL ACTIVITY (% CONTROL) SORHA” value in experiment [8] worked out at 90%. The “PREEMERGENCE HERBICIDAL ACTIVITY (% CONTROL) STEME” value in experiment [10] is recorded as 100%. Moreover, the “Postemergence herbicidal activity (% control) SETVI” value in [11] is recorded as 100%. For the same compound, the “PREEMERGENCE HERBICIDAL ACTIVITY (% CONTROL) IPOSS” value in experiment [12] is given as 100%. Also, the “PREEMERGENCE HERBICIDAL ACTIVITY (% CONTROL) ALOMY” value in experiment [13] stood at 70%. The “PREEMERGENCE HERBICIDAL ACTIVITY (% CONTROL) ABUTH” value in experiment [14] turned out to be 100%. The “PREEMERGENCE HERBICIDAL ACTIVITY (% CONTROL) CRN” value in [15] stood at 95%. Besides, the “Postemergence herbicidal activity (% control) XANPE” value in experiment [16] stood at 100%. Also, the “Postemergence herbicidal activity (% control) SOY” value in experiment [17] turned out to be 100%. Besides, the “Postemergence herbicidal activity (% control) CRN” value in experiment [18] stood at 90%. Moreover, the “Postemergence herbicidal activity (% control) ALOMY” value in [19] stood at 80%.
